Data: patent publication US5045533A, “Retinoic esters of antibiotics and pharmaceutical and cosmetic compositions containing them” (L'Oreal, priority 1986, dated 1991)
Values after ≈ are worked out from the molar mass of the structure shown. Where two headings read alike, the source gives them in different places.

Experiments:
[1] = test system: P37 E⊕ (sensitive); experiment: MIC by dilution method, P37 E⊕ (sensitive) strain; type: cell-based, propionibacterium acnes; conditions: for MIC: Cutibacterium acnes; for activity on sensitive strains relative to the esters of the invention: P37 E⊕
Source text: (§1) The activity of retinoic esters of antibiotics namely of erythromycin A, lincomycin and clindamycin has been studied by the dilution method, so as to determine, the minimal inhibitory concentration (MIC), this method being described and employed by G. A. Denys et al, "Antimicrobial Agents and Chemotherapy" 1983) 23, 335-337 and J. J. Leyden et al, J. Am. Acad. Dermatol. (1983), 8, (1) 41-5, by using as the strain of propionibacterium acnes, the P37 strain furnished by Cunliffe and Holland.
(§2) (2) at 1 cm beyond the periphery of the zone of inhibition strains called P37 E⊕ are retained.
(§3) After isolation and culture, the P37 E⊕ and P37 E⊖ strains effectively show very different sensitivities to erythromycin as is illustrated by the following respective MIC values:
(§4) The Minimal Inhibitory Concentration (MIC) expressed in μg/ml of the tested retinoic esters of erythromycin A, lincomycin and clindamycin vis-a-vis the P37⊕ and P37⊖ strains is reported in the following tables

[2] = test system: P37 E⊖ (resistant); experiment: MIC by dilution method, P37 E⊖ (resistant) strain; type: cell-based, propionibacterium acnes; conditions: for MIC: Cutibacterium acnes; for activity on resistant strains relative to the esters of the invention: P37 E⊖
Source text: as §1
(§5) (1) at the interior of the zone of inhibition strains called P37 E⊖ are retained because of their apparent resistance to erythromycin;
as §3, §4

[3] = test system: Staph. Epi. 3; experiment: MIC, Staph. Epi. 3 strain; type: cell-based; conditions: Staphylococcus epidermidis; strain isolated from an acne patient; read-out: minimal inhibitory concentrations, Staph. Epi. 3
Source text: as §1
(§6) The "Staph. Epi. 3" strain is isolated from an acne patient whereas the "Staph. Epi. 6" strain is isolated from a non-acne patient. The isolation of these strains is carried out in accordance with the Williamson-Kligman method, ("A new method for the quantitative investigation of cutaneous bacteria", P. Williamson and A. Kligman, J. I. D., Vol. 45, No. 6, 1965). Decimal dilutions of the retained portions are effected and 0.1 ml of these dilutions is inoculated on a selective medium permitting isolation of staphylococcus.

[4] = test system: Staph. Epi. 6; experiment: MIC, Staph. Epi. 6 strain; type: cell-based; conditions: Staphylococcus epidermidis; strain isolated from a non-acne patient; read-out: minimal inhibitory concentrations, Staph. Epi. 6
Source text: as §1, §6

[5] = test system: P37 strain; experiment: zone of inhibition of growth around disk in Petri dish; type: cell-based, propionibacterium acnes; conditions: Cutibacterium acnes, 144 h; 50 μg erythromycin in DMSO on 9 mm disk; 6 days at 36° C., anaerobic; after 8 sub-cultures; read-out: zone of inhibition of the growth of the strain, total diameter
Description: On the other hand, after 8 successive sub-cultures in the same medium (RCM, Reinforced Clostridium Medium (oxoid) 19/20, DMSO […] by volume) so as to obtain a progressive stabilization of the strain to this medium, a progressive resistance to erythromycin is manifested in the following form.
After exposure of a standardized inoculum (DO=1.8 to […]) on gelose medium (RCM+ furazolidone) in a Petri dish, a 9 mm diameter disk is deposited at its center. On this disk, 50 μg of erythromycin (in solution in DMSO) are deposited.

[6] = test system: P37; experiment: IC 50 (Inhibitory Concentration at 50%), P37; type: cell-based, propionibacterium acnes; conditions: Cutibacterium acnes, constant culture time, 50% of survivors
Source text: (§7) This phenomeon is confirmed by the study of the IC 50 (Inhibitory Concentration at 50%) which represents the concentration of erythromycin where, at a constant culture time, 50% of survivors among the population are found.

[7] = test system: P37 E⊕; experiment: IC 50 (Inhibitory Concentration at 50%), P37 E⊕; type: cell-based, propionibacterium acnes; conditions: Cutibacterium acnes, constant culture time, 50% of survivors
Source text: as §2, §7

[8] = test system: P37 E⊖; experiment: IC 50 (Inhibitory Concentration at 50%), P37 E⊖; type: cell-based, propionibacterium acnes; conditions: Cutibacterium acnes
Source text: as §5, §7

[9] = sensitive strain, retinoic ester table, read-out: Minimal Inhibitory Concentration (MIC), P37 E⊕ (sensitive)
[10] = read-out: Minimal Inhibitory Concentration (MIC), P37 E⊖ (resistant)

In the case of `CCC[C@@H]1C[C@@H](C(=O)N[C@@H]([C@H]2O[C@H](SC)[C@H](O)[C@@H](O)[C@H]2O)[C@H](C)Cl)N(C)C1` [Clindamycin], the MIC [1, 9] is reported as 1 µg/mL (≈ 2.35 µM), the MIC [2, 10] is reported as 10 µg/mL (≈ 23.5 µM) and the MIC [3] is reported as 7 µg/mL (≈ 16.5 µM). For the same compound, the MIC [4] was 8 µg/mL (≈ 18.8 µM).

Work on `CC[C@H]1OC(=O)[C@H](C)[C@@H](O[C@H]2C[C@@](C)(OC)[C@@H](O)[C@H](C)O2)[C@H](C)[C@@H](O[C@@H]2O[C@H](C)C[C@H](N(C)C)[C@H]2O)[C@](C)(O)C[C@@H](C)C(=O)[C@H](C)[C@@H](O)[C@]1(C)O` [Erythromycin A] yielded an MIC ([1]; P37 E⊕ strain, strain characterisation table, read-out: MIC) of 0.78 µg/mL (≈ 1.06 µM), an MIC [1, 9] of 1 µg/mL (≈ 1.36 µM) and an MIC [2] of 50 µg/mL (≈ 68.1 µM). For the same compound, the MIC [2, 10] was greater than 50 µg/mL, the zone of inhibition at 50 µg/disc [5] was 42 mm and the IC50 [6] was 50 µg/mL (≈ 68.1 µM). It also gave an IC50 [7] of 5 µg/mL (≈ 6.81 µM), an IC50 [8] of 100 µg/mL (≈ 136 µM) and an MIC [3] of 13 µg/mL (≈ 17.7 µM). The MIC [4] was 30 µg/mL (≈ 40.9 µM).

In the case of `CCC[C@@H]1C[C@@H](C(=O)N[C@@H]([C@H]2O[C@H](SC)[C@H](O)[C@@H](O)[C@H]2O)[C@@H](C)O)N(C)C1` [Lincomycin], the MIC [1, 9] is reported as 13 µg/mL (≈ 32 µM), the MIC [2, 10] is reported as 66 µg/mL (≈ 162 µM) and the MIC [3] is reported as 14 µg/mL (≈ 34.4 µM). For the same compound, the MIC [4] was 20 µg/mL (≈ 49.2 µM).

`CCCCCCCC/C=C\CCCCCCCC(=O)O[C@H]1[C@H](O[C@@H]2[C@@H](C)[C@H](O[C@H]3C[C@@](C)(OC)[C@@H](O)[C@H](C)O3)[C@@H](C)C(=O)O[C@H](CC)[C@@](C)(O)[C@H](O)[C@@H](C)C(=O)[C@H](C)C[C@@]2(C)O)O[C@H](C)C[C@@H]1N(C)C` [O-oleoyl-2'-erythromycin A (Z-9)] was tested, and the MIC [1, 9] was 50 µg/mL (≈ 50.1 µM), the “activity on sensitive strains relative to the esters of the invention” value [1] was “clearly less active” and the MIC [2, 10] was 100 µg/mL (≈ 100 µM). For the same compound, the “activity on resistant strains relative to the esters of the invention” value [2] was “clearly less active”.

`CCCCCCCC/C=C\CCCCCCCC(=O)O[C@H]1[C@@H](O)[C@@H]([C@H](NC(=O)[C@@H]2C[C@@H](CCC)CN2C)[C@H](C)Cl)O[C@H](SC)[C@@H]1O` [O-oleoyl-3-clindomycin] was tested, and the MIC [1, 9] was 54 µg/mL (≈ 78.3 µM), the “activity on sensitive strains relative to the esters of the invention” value [1] was “clearly less active” and the MIC [2, 10] was greater than 138 µg/mL. The “activity on resistant strains relative to the esters of the invention” value [2] was “clearly less active”.

Work on `CCCCCCCC/C=C\CCCCCCCC(=O)O[C@H]1[C@@H](O)[C@@H]([C@H](NC(=O)[C@@H]2C[C@@H](CCC)CN2C)[C@@H](C)O)O[C@H](SC)[C@@H]1O` [O-oleoyl-3-lincomycin] yielded an MIC [1, 9] of 19 µg/mL (≈ 28.3 µM) and an MIC [2, 10] of 42 µg/mL (≈ 62.6 µM).

Compound `CC[C@H]1OC(=O)[C@H](C)[C@@H](O[C@H]2C[C@@](C)(OC)[C@@H](O)[C@H](C)O2)[C@H](C)[C@@H](O[C@@H]2O[C@H](C)C[C@H](N(C)C)[C@H]2OC(=O)\C=C(C)/C=C/C=C(C)/C=C/C2=C(C)CCCC2(C)C)[C@](C)(O)C[C@@H](C)C(=O)[C@H](C)[C@@H](O)[C@]1(C)O` [O-retinoyl (13-cis)-2'-erythromycin A] has an MIC [1, 9] of 20 µg/mL (≈ 19.7 µM), an MIC [2, 10] of 34 µg/mL (≈ 33.5 µM) and an MIC [3] of 110 µg/mL (≈ 108 µM). The MIC [4] was 110 µg/mL (≈ 108 µM).

In the case of `CCC[C@@H]1C[C@@H](C(=O)N[C@@H]([C@H]2O[C@H](SC)[C@H](O)[C@@H](OC(=O)\C=C(C)/C=C/C=C(C)/C=C/C3=C(C)CCCC3(C)C)[C@H]2O)[C@H](C)Cl)N(C)C1` [O-retinoyl (13-cis)-3-clindamycin], the MIC [1, 9] is reported as 1.5 µg/mL (≈ 2.12 µM), the MIC [2, 10] is reported as 35 µg/mL (≈ 49.5 µM) and the MIC [3] is reported as 113 µg/mL (≈ 160 µM). It also gave an MIC [4] of 113 µg/mL (≈ 160 µM).

With `CCC[C@@H]1C[C@@H](C(=O)N[C@@H]([C@H]2O[C@H](SC)[C@H](O)[C@@H](OC(=O)\C=C(C)/C=C/C=C(C)/C=C/C3=C(C)CCCC3(C)C)[C@H]2O)[C@@H](C)O)N(C)C1` [O-retinoyl (13-cis)-3-lincomycin] the MIC [1, 9] was 17.5 µg/mL (≈ 25.4 µM), the MIC [2, 10] was 25 µg/mL (≈ 36.3 µM) and the MIC [3] was 100 µg/mL (≈ 145 µM). The MIC [4] was 100 µg/mL (≈ 145 µM).

With `CC[C@H]1OC(=O)[C@H](C)[C@@H](O[C@H]2C[C@@](C)(OC)[C@@H](O)[C@H](C)O2)[C@H](C)[C@@H](O[C@@H]2O[C@H](C)C[C@H](N(C)C)[C@H]2OC(=O)/C=C(C)/C=C/C=C(C)/C=C/C2=C(C)CCCC2(C)C)[C@](C)(O)C[C@@H](C)C(=O)[C@H](C)[C@@H](O)[C@]1(C)O` [O-retinoyl (all trans)-2'-erythromycin A] the MIC [1, 9] was 14 µg/mL (≈ 13.8 µM), the MIC [2, 10] was 13 µg/mL (≈ 12.8 µM) and the MIC [3] was 75 µg/mL (≈ 73.8 µM). It also gave an MIC [4] of 80 µg/mL (≈ 78.7 µM).

`CCC[C@@H]1C[C@@H](C(=O)N[C@@H]([C@H]2O[C@H](SC)[C@H](O)[C@@H](OC(=O)/C=C(C)/C=C/C=C(C)/C=C/C3=C(C)CCCC3(C)C)[C@H]2O)[C@H](C)Cl)N(C)C1` [O-retinoyl (all-trans)-3-clindamycin, O-retinoyl (all trans)-3-clindamycin] showed an MIC [1, 9] of 18 µg/mL (≈ 25.4 µM) and an MIC [2, 10] of 50 µg/mL (≈ 70.7 µM).
